How the values were obtained:
[1] = test system: OVCA-429T (resistant) ovarian cancer cells; assay: MTT toxicity assay of PTX and PTX-HexPhos conjugate; format: cell-based, human; conditions: for Resistance Factor: ratio of EC50 in OVCA-429T and OVCA-429 cells
Description: The in vitro efficacy of PTX-HexPhos conjugate 16 was compared to free PTX in both wild-type and PTX-resistant ovarian cancer cells engineered to have high levels of Pgp up-regulation. OVCA-429 (wild-type) and OVCA-429T (resistant) cells were treated with free PTX (14) or the HexPhos conjugate 16 for 20 minutes in PBS, then washed and incubated for 3 days. After this time, cellular viability was assessed using a standard MTT assay to generate an EC50 value (the concentration at which overall cellular viability was half that of untreated cells) for each condition. […] The efficacy of these compounds can be expressed in terms of a “resistance factor” for free PTX and the HexPhos-paclitaxel conjugate 16, defined as the EC50 in resistant cells/the EC50 in wild-type cells.
MTT Toxicity Assays. The cytotoxicity of HexPhos oligomers, PTX alone, and PTX-HexPhos conjugate (16) were assessed by a standard MTT percent viability assay. Adherent cells (HeLa for oligomers alone, OVCA-429 or OVCA-429T for PTX and PTX-HexPhos conjugate) were plated at 5,000 cells/well in 96 well plates and allowed to incubate at 37° C. for 12-24 hours to adhere. Cells were washed with serum-free DMEM prior to treatment. In a second 96-well plate, compounds were serially diluted over a range of 200 μM to 400 nM, with two-fold dilutions between each well. For PTX conditions, a range of 20 μM to 40 nM was used. Each compound was tested in triplicate. […] Second plate was transferred to the plate containing cells, and incubated at 37° C. for 10 minutes, followed washing and replacement with 150 μL fresh serum-containing DMEM. Cells were incubated for an additional 72 hours at 37° C., after which time cellular viability was assayed by adding μ10 L of 3-(4,5-dimethylthiazol-2-yl)-2,5-diphenyltetrazolium bromide (MTT) solution (15 mg in 3 mL DMEM). Incubated for 2 hours at 37° C. […] Read absorbance on a plate reader at 570 and 690 nm. Subtracted absorbance at 570 from absorbance at 690 and normalized to wells with no cells as a minimum, and untreated cells as a maximum to calculate % viability.

[2] = test system: OVCA-429 (wild-type) ovarian cancer cells; assay: as above; format: cell-based, human; conditions: wash, 72 hours drug-free media, concentrations based on paclitaxel content
Description: OVCA-429 (wild-type) and OVCA-429T (resistant) cells were treated with free PTX (14) or the HexPhos conjugate 16 for 20 minutes in PBS, then washed and incubated for 3 days. After this time, cellular viability was assessed using a standard MTT assay to generate an EC50 value (the concentration at which overall cellular viability was half that of untreated cells) for each condition. […] The efficacy of these compounds can be expressed in terms of a “resistance factor” for free PTX and the HexPhos-paclitaxel conjugate 16, defined as the EC50 in resistant cells/the EC50 in wild-type cells.
MTT Toxicity Assays. The cytotoxicity of HexPhos oligomers, PTX alone, and PTX-HexPhos conjugate (16) were assessed by a standard MTT percent viability assay. Adherent cells (HeLa for oligomers alone, OVCA-429 or OVCA-429T for PTX and PTX-HexPhos conjugate) were plated at 5,000 cells/well in 96 well plates and allowed to incubate at 37° C. for 12-24 hours to adhere. Cells were washed with serum-free DMEM prior to treatment. In a second 96-well plate, compounds were serially diluted over a range of 200 μM to 400 nM, with two-fold dilutions between each well. […] Read absorbance on a plate reader at 570 and 690 nm. Subtracted absorbance at 570 from absorbance at 690 and normalized to wells with no cells as a minimum, and untreated cells as a maximum to calculate % viability.

HeLa cells [3] = conditions: without attachment to a transporter, previously shown; cited from earlier work
HeLa cells [4] = assay: Uptake of maleimide conjugates by flow cytometry; conditions: 10 μM, 10 minutes
Description: (FIG. 4A) Delivery of FL-maleimide to HeLa cells by click-coupling to thiol-initiated HexPhos oligomer 8. Maleimide control and HexPhos8 conjugate (11 and 12 respectively) were formed by reaction of 10 with the corresponding thiol for 2 hours at room temperature in PBS. The resulting compounds were exposed to HeLa cells at 10 μM final concentration for 10 minutes before determining uptake by flow cytometry. Data shown is the average fluorescence of 10,000 events measured.
To explore this strategy, deprotected thiol-initiated HexPhos 8-mer (7) was mixed with fluorescein (FL) maleimide (10) in PBS at room temperature for 2 hours to effect a Michael addition and uptake of the resulting conjugate was determined by flow cytometry (FIG. 4, panel A).
HeLa cells were plated at 40,000 cells/well in 24-well plates and incubated at 37° C. for 12-24 hours to adhere. Before treatment, a 1:1 molar ratio of thiol-initiated HexPhos oligomer (7) and FL-maleimide (10, Molecular Probes) was incubated for 2 hours in PBS (pH 7.4) at a final concentration of 4 mM. […] After removal of the supernatant, cells were resuspended in 125 μL of PBS and transferred to FACS tubes and read on a flow cytometry analyzer for the presence of fluorescein. Results were analyzed by FlowJo software. Data presented is the mean fluorescence from 10,000 cells analyzed.

CC(=O)O[C@H]1C(=O)[C@@]2(C)[C@H]([C@H](OC(=O)c3ccccc3)[C@]3(O)C[C@H](OC(=O)[C@H](O)[C@@H](NC(=O)c4ccccc4)c4ccccc4)C(C)=C1C3(C)C)[C@]1(OC(C)=O)CO[C@@H]1C[C@@H]2O [PTX Alone (14), paclitaxel]
EC50 ([1]; Homo sapiens, treated 20 minutes, wash, 72 hours drug-free media, MTT, assay limit 20 μM): > 20 µM | Resistance Factor [1]: >400 | Resistance Factor ([1]; listed as 14): ≥ 400 | EC50 ([2]; Homo sapiens, OVCA429, treated 20 minutes): 0.051 ± 0.037 µM | EC50 (μM) OVCA-429 (Wild-type) ([2]; treated 20 minutes): highly cytotoxic

CN(C)c1cccc2c(S(=O)(=O)NCCO)cccc12 [Compound 4, 5-(dimethylamino)-N-(2-hydroxyethyl)naphthalene-1-sulfonamide]
cell entry of probe alone (HeLa cells [3]): not to enter cells

O=C1OC2(c3ccc(O)cc3Oc3cc(O)ccc32)c2ccc(N3C(=O)C=CC3=O)cc21 [Compound 10, fluorescein (FL) maleimide]
FL fluorescence of cells treated with controls (HeLa cells [4]): little FL fluorescence
